Broadly, the CC50 is the concentration that lowers cell viability or growth by half.

Calls of active or inactive are those of the source. The calls are words filed in the database; no cut-off is given here. Bounds are passed on as bounds.

Series [1] is described as follows: Cytotoxicity against green monkey Vero cells assessed as cell viability at 0.78 to 100 uM incubated for 5 days by MTT assay relative to control. To be noted: chlorocebus sabaeus, dose 0.78-100 µM, time 5 day, read-out: Activity. In kind it is toxicity, cell-based. On the technique in general: Formazan colour is commonly taken as a measure of viable cells.
Series [2] concerns Chikungunya virus. The series can be described thus: Antiviral activity against Chikungunya virus infected in green monkey Vero cells assessed as reduction in viral growth at 50 uM preincubated for 1 hr with compound followed by virus infection and measured after 24 hrs by focus forming unit assay. In kind it is functional, organism-based. Particulars: time 25.0 hrs.
Series [3] is described as follows: Cytotoxicity against green monkey Vero cells incubated for 5 days by MTT assay. To be noted: chlorocebus sabaeus, time 5 day. It is filed as toxicity, cell-based.
Series [4] deals with Chikungunya virus. The series can be described thus: Antiviral activity against Chikungunya virus infected in green monkey Vero cells assessed as reduction in viral growth at 50 uM incubated for 1 hr along with virus infection and measured after 24 hrs by focus forming unit assay. In kind it is functional, organism-based. Particulars: time 25.0 hrs.
Series [5] has as its system Chikungunya virus. The series can be described thus: Antiviral activity against Chikungunya virus infected in green monkey Vero cells assessed as reduction in viral growth at 3.125 uM preincubated for 1 hr with compound followed by virus infection and measured after 24 hrs by focus forming unit assay. In kind it is functional, organism-based. Particulars: time 25.0 hrs.

For series [6], the system named is Chikungunya virus. The series can be described thus: Antiviral activity against Chikungunya virus infected in green monkey Vero cells assessed as reduction in viral growth at 3.125 uM incubated for 1 hr along with virus infection and measured after 24 hrs by focus forming unit assay. To be noted: time 25.0 hrs. It is filed as functional, organism-based.
Series [7] has as its system Dengue virus. Briefly: Antiviral activity against Dengue virus infected in green monkey Vero cells assessed as reduction in colony forming unit at 100 uM incubated for 1 hr after the virus infection and measured after 120 hrs by focus forming unit assay. To be noted: time 121 hrs. In kind it is functional.
Series [8] concerns Chikungunya virus. The series can be described thus: Antiviral activity against Chikungunya virus infected in green monkey Vero cells assessed as reduction in viral growth at 100 uM incubated for 1 hr along with virus infection and measured after 24 hrs by focus forming unit assay. Particulars: time 25.0 hrs. It is filed as functional, organism-based.
Series [9] deals with Dengue virus. Briefly: Antiviral activity against Dengue virus infected in green monkey Vero cells assessed as reduction in viral titer at 100 uM incubated for 1 hr after the virus infection and measured after 120 hrs by focus forming unit assay (reference value: 6.134 log10FFU/ml). In kind it is functional. To be noted: time 121 hrs.
Series [10] relates to Chikungunya virus. The series can be described thus: Antiviral activity against Chikungunya virus infected in green monkey Vero cells assessed as reduction in viral growth at 100 uM preincubated for 1 hr with compound followed by virus infection and measured after 24 hrs by focus forming unit assay. To be noted: time 25.0 hrs. In kind it is functional, organism-based.
In series [11] the test system is Dengue virus. Briefly: Antiviral activity against Dengue virus infected in green monkey Vero cells assessed as reduction in colony forming unit incubated for 1 hr after the virus infection and measured after 120 hrs by focus forming unit assay. In kind it is functional, organism-based. Particulars: time 121.0 hrs.
Series [12] relates to Chikungunya virus. The series can be described thus: Antiviral activity against Chikungunya virus infected in green monkey Vero cells assessed as reduction in viral growth at 6.25 uM incubated for 1 hr along with virus infection and measured after 24 hrs by focus forming unit assay. Particulars: time 25.0 hrs. It is filed as functional, organism-based.
The subject of series [13] is Chikungunya virus. Briefly: Antiviral activity against Chikungunya virus infected in green monkey Vero cells assessed as reduction in viral growth at 6.25 uM preincubated for 1 hr with compound followed by virus infection and measured after 24 hrs by focus forming unit assay. It is filed as functional, organism-based. Particulars: time 25.0 hrs.
In series [14] the test system is Chikungunya virus. Briefly: Antiviral activity against Chikungunya virus infected in green monkey Vero cells assessed as reduction in viral growth incubated for 1 hr after the virus infection and measured after 24 hrs by focus forming unit assay. In kind it is functional, organism-based. To be noted: time 25.0 hrs.
In series [15] the test system is Dengue virus. Briefly: Antiviral activity against Dengue virus infected in green monkey Vero cells assessed as reduction in viral titer at 50 uM incubated for 1 hr after the virus infection and measured after 120 hrs by focus forming unit assay (reference value: 6.134 log10FFU/ml). It is filed as functional. To be noted: time 121 hrs.
For series [16], the system named is Dengue virus. Briefly: Antiviral activity against Dengue virus infected in green monkey Vero cells assessed as reduction in colony forming unit at 50 uM incubated for 1 hr after the virus infection and measured after 120 hrs by focus forming unit assay. Particulars: time 121 hrs. In kind it is functional.
Series [17] deals with Dengue virus. Briefly: Antiviral activity against Dengue virus infected in green monkey Vero cells assessed as reduction in viral titer at 25 uM incubated for 1 hr after the virus infection and measured after 120 hrs by focus forming unit assay (reference value: 6.134 log10FFU/ml). To be noted: time 121 hrs. It is filed as functional.
For series [18], the system named is Chikungunya virus. The series can be described thus: Antiviral activity against Chikungunya virus infected in green monkey Vero cells assessed as reduction in colony forming unit at 50 uM incubated for 1 hr after the virus infection and measured after 24 hrs by focus forming unit assay. In kind it is functional. To be noted: time 25 hrs.
Series [19] has as its system Dengue virus. The series can be described thus: Antiviral activity against Dengue virus infected in green monkey Vero cells assessed as reduction in colony forming unit incubated for 1 hr along with virus infection and measured after 120 hrs by focus forming unit assay. It is filed as functional, organism-based. Particulars: time 121.0 hrs.
The subject of series [20] is Dengue virus. Briefly: Antiviral activity against Dengue virus infected in green monkey Vero cells assessed as reduction in colony forming unit at 12.5 uM incubated for 1 hr along with virus infection and measured after 120 hrs by focus forming unit assay (reference value: 5.187 log10FFU/ml). It is filed as functional. To be noted: time 121 hrs.
The subject of series [21] is Chikungunya virus. Briefly: Antiviral activity against Chikungunya virus infected in green monkey Vero cells assessed as reduction in viral growth at 12.5 uM incubated for 1 hr along with virus infection and measured after 24 hrs by focus forming unit assay. In kind it is functional, organism-based. Particulars: time 25.0 hrs.
Series [22] relates to Chikungunya virus. Briefly: Antiviral activity against Chikungunya virus infected in green monkey Vero cells assessed as reduction in viral growth at 12.5 uM preincubated for 1 hr with compound followed by virus infection and measured after 24 hrs by focus forming unit assay. It is filed as functional, organism-based. To be noted: time 25.0 hrs.

Regarding `COc1cc2c(cc1OC)C1(c3cc(OC)c(OC)cc3C2=O)c2cc(OC)c(OC)cc2C(=O)N1/N=C/c1ccc(N(C)C)cc1`, the viability at 120 h, up to 100 µM in [1] was ≥ 90%. The outcome in the series with Chikungunya virus [2] and in the series with Chikungunya virus [4] was inactive. In series [3], this compound yielded a CC50 at 120 h of 122 µM.

Turning to `COc1cc2c(cc1OC)C1(c3cc(OC)c(OC)cc3C2=O)c2cc(OC)c(OC)cc2C(=O)N1/N=C/c1c2ccccc2cc2ccccc12`, the viability at 120 h, up to 100 µM in series [1] was ≥ 90%. For the same compound, the result with Chikungunya virus [2] and in the series with Chikungunya virus [4] was inactive. The compound also displayed a CC50 at 120 h in series [3] of 352 µM.

As to `COc1cc2c(cc1OC)C1(c3cc(OC)c(OC)cc3C2=O)c2cc(OC)c(OC)cc2C(=O)N1/N=C/c1cccs1`, the viability at 120 h, up to 100 µM in series [1] was ≥ 90%. The compound also returned a CC50 at 120 h in series [3] of 52.7 µM. Moreover, the result with Chikungunya virus [5] and in the series on Chikungunya virus [6] was inactive.

On to `COc1cc2c(cc1OC)C1(c3cc(OC)c(OC)cc3C2=O)c2cc(OC)c(OC)cc2C(=O)N1/N=C/c1ccccc1`, for which the viability at 120 h, up to 100 µM in [1] was ≥ 90%. Moreover, the Activity entry is “>=1 log10CFU” in the series on Dengue virus [7], 5.03 log10FFU/ml in the series on Dengue virus [9] and “Dose-Dependent Effect” in the series on Dengue virus [11]. In series [3], the 50% cytotoxic concentration (CC50) at 120 h was > 100 µM. The outcome with Chikungunya virus [8] and in the series with Chikungunya virus [10] was inactive.

Turning to `COc1cc2c(cc1OC)C1(c3cc(OC)c(OC)cc3C2=O)c2cc(OC)c(OC)cc2C(=O)N1/N=C/c1ccc2ccccc2n1`, the outcome in the series on Chikungunya virus [12] and in the series with Chikungunya virus [13] was inactive. For the same compound, the viability at 120 h, up to 100 µM in series [1] is ≥ 90%. In [3], this compound gave a 50% cytotoxic concentration (CC50) at 120 h of 100 µM.

As to `COc1cc2c(cc1OC)C1(c3cc(OC)c(OC)cc3C2=O)c2cc(OC)c(OC)cc2C(=O)N1/N=C/c1cc(OC)c(OC)c(OC)c1`, in series [1], the viability at 120 h, up to 100 µM is ≥ 90%. Also, the Activity entry with Chikungunya virus [14] was “Dose-Dependent Effect”; in the series with Dengue virus [16] it was “>=1 log10CFU”; in the series on Dengue virus [17] it was 5.064 log10FFU/ml; in the series with Chikungunya virus [18], “>=1 log10CFU”; in the series with Dengue virus [11], “Dose-Dependent Effect”. Besides, the outcome in the series on Chikungunya virus [2] and with Chikungunya virus [4] was inactive. The Remaining viral titer in the series on Dengue virus [15] is 4.098 log10FFU/ml. The compound further came in with a CC50 at 120 h in series [3] of 99.8 µM.

As for `COc1cc2c(cc1OC)C1(c3cc(OC)c(OC)cc3C2=O)c2cc(OC)c(OC)cc2C(=O)N1/N=C/c1ccc(Br)cc1`, the viability at 120 h, up to 100 µM in series [1] is ≥ 90%. Also, the outcome in the series with Chikungunya virus [2] and with Chikungunya virus [4] was inactive. Moreover, the Remaining viral titer in the series with Dengue virus [15] came to 5.431 log10FFU/ml. In addition, the Activity result in the series with Dengue virus [16] is “>=1 log10CFU”; with Dengue virus [11], “Dose-Dependent Effect”. For the same compound, half-maximal cytotoxicity in series [3] (CC50 at 120 h) was put at 181 µM.

Regarding `COc1cc2c(cc1OC)C1(c3cc(OC)c(OC)cc3C2=O)c2cc(OC)c(OC)cc2C(=O)N1/N=C/c1cc(OC)c(O)c(OC)c1`, the viability at 120 h, up to 100 µM in series [1] was ≥ 90%. Also, the Activity entry in the series with Dengue virus [7] is “>=1 log10CFU”; with Dengue virus [9], 3.994 log10FFU/ml; in the series on Dengue virus [11], “Dose-Dependent Effect”. Further, the Remaining viral titer in the series with Dengue virus [15] amounted to 5.052 log10FFU/ml. In [3], the CC50 at 120 h was > 100 µM. The result in the series with Chikungunya virus [8] and in the series with Chikungunya virus [10] was inactive.

For `COc1cc2c(cc1OC)C1(c3cc(OC)c(OC)cc3C2=O)c2cc(OC)c(OC)cc2C(=O)N1/N=C/c1ccccc1O`, the viability at 120 h, up to 100 µM in series [1] is ≥ 90%. Besides, the Activity entry is “Dose-Dependent Effect” with Dengue virus [19] and 4.101 log10FFU/ml in the series with Dengue virus [20]. In addition, the result in the series on Chikungunya virus [21] and in the series with Chikungunya virus [22] was inactive. Moreover, the half-maximal cytotoxic concentration (CC50) at 120 h in series [3] is 173 µM.

As for `COc1cc2c(cc1OC)C1(c3cc(OC)c(OC)cc3C2=O)c2cc(OC)c(OC)cc2C(=O)N1NC(=O)c1ccc([N+](=O)[O-])cc1`, in series [1], the viability at 120 h, up to 100 µM was ≥ 90%. The outcome with Chikungunya virus [2] and in the series with Chikungunya virus [4] was inactive. Also, in series [3], the midpoint of cytotoxicity, the CC50 at 120 h, lay at 97.3 µM.

On to `COc1cc(/C=N/N2C(=O)c3cc(OC)c(OC)cc3C23c2cc(OC)c(OC)cc2C(=O)c2cc(OC)c(OC)cc23)ccc1O`, for which, in series [1], the viability at 120 h, up to 100 µM is ≥ 90%. Further, the result with Chikungunya virus [2] and in the series on Chikungunya virus [4] was inactive. Besides, the Remaining viral titer with Dengue virus [15] was found to be 5.23 log10FFU/ml. In addition, the Activity result with Dengue virus [16] is “>=1 log10CFU”; with Dengue virus [11], “Dose-Dependent Effect”. The compound further returned a 50% cytotoxic concentration (CC50) at 120 h in series [3] of 113 µM.

As to `COc1cc2c(cc1OC)C1(c3cc(OC)c(OC)cc3C2=O)c2cc(OC)c(OC)cc2C(=O)N1NC(=O)c1cc(C(F)(F)F)cc(C(F)(F)F)c1`, the viability at 120 h, up to 100 µM in [1] was ≥ 90%. Further, the Activity entry with Chikungunya virus [14] was “Dose-Dependent Effect”; with Chikungunya virus [18], “>=1 log10CFU”. For the same compound, the outcome in the series with Chikungunya virus [2] and in the series on Chikungunya virus [4] was inactive. This compound also returned a CC50 at 120 h in series [3] of 98.9 µM.
